Measurements taken from publication PMC11050424, “Antibacterial and Hemolytic Activity of Antimicrobial Hydrogels Utilizing Immobilized Antimicrobial Peptides” (International Journal of Molecular Sciences, 2024).
Converted amounts (≈) assume the structure as drawn. Residues, ends and D or L forms follow the SMILES beside them.

Assays:
[1] = tested on: P. aeruginosa (CCUG 56489); format: cell-based, Pseudomonas aeruginosa
Experimental: (§1) The minimum inhibitory concentration protocol was adapted from [42], with the main change in volume for easier observation. In short, the protocol was as follows: a single colony of Staphylococcus aureus (CCUG 10778) or Pseudomonas aeruginosa (CCUG 56489) was inoculated in 4 mL of TSB and cultivated at 37 °C until OD ~ 0.7 which corresponds to a concentration of roughly 10^9 CFU mL^−1. This was then diluted 1000 times to a concentration of roughly 10^6 CFU mL^−1 using Mueller Hinton broth (MH broth). In the meantime, the different peptides were weighed in separate 15 mL falcon tubes and dissolved in MH broth for a concentration of 512 µM. Serial dilution by a factor of 2 was then performed, with MH broth, in a 24-well plate, leaving 500 µL of solution in each well. Then, 500 µL of the bacterial solution was added to each well resulting in a starting concentration of 5 × 10^5 CFU mL^−1. […] The plates were cultivated overnight (16–18 h) and the minimum inhibitory concentration was determined for the lowest concentration where no visible growth was observed. Three separate experiments were performed for all peptides and bacteria.

S. aureus (CCUG 10778) = format: cell-based, Staphylococcus aureus
Experimental: as §1

defibrinated horse blood = format: cell-based; conditions: red cells of horse, 1 h
Experimental: The use of hemolysis assays to study AMPs is a common implementation and quite standardized with small variations. Serial dilutions of the free AMPs were prepared in PBS to obtain 100 µL in Eppendorf tubes of the concentrations: 2, 4, 8, 16, 32, 64, 128, and 256 µM. A total of 100 µL of just PBS was added to an Eppendorf tube to serve as a negative control, and 100 µL of 0.2% Triton X-100 was added to an Eppendorf tube to serve as a positive control. The functionalized 8 mm Ø hydrogels as well as non-functionalized control hydrogels were placed in Eppendorf tubes together with 0.1, 0.2, 0.3 mL, or 0.4 mL PBS, two samples per type. For each volume, a set of negative control (PBS) and positive control (0.2% Triton X-100) was included using a matching volume. The blood used for the study was defibrinated horse blood from Thermo Fisher Scientific. The blood was placed in a 15 mL falcon tube and centrifuged at 4 °C for 10 min at 1000× g. The supernatant was discarded, and the erythrocytes were resuspended in 4 °C PBS and again centrifuged and the supernatant was removed. […]
The Eppendorf tubes were placed in an incubator at 37 °C for 1 h and the tubes were rotated 3 times every 15 min to limit sedimentation of the red blood cells. […] The absorbance was read at 540 nm using a Multiskan GO from Thermo Fisher Scientific. The rate of hemolysis was determined by Equation (2). […]

SMILES	MIC, P. aeruginosa [1]	MIC, S. aureus (S. aureus (CCUG 10778))	Hemolysis at 8–16 µM (observed MIC values against P. aeruginosa) (defibrinated horse blood; 16)	Hemolysis at corresponding MIC values (defibrinated horse blood)
NCCCC[C@H](NC(=O)[C@@H](N)CCCCN)C(=O)N1CCC[C@H]1C(=O)N[C@@H](CCCCN)C(=O)N1CCC[C@H]1C(=O)N[C@@H](CCCCN)C(=O)N1CCC[C@H]1C(=O)N[C@@H](CCCCN)C(=O)N1CCC[C@H]1C(=O)N[C@@H](Cc1c[nH]c2ccccc12)C(=O)N[C@@H](Cc1c[nH]c2ccccc12)C(=O)N[C@@H](Cc1c[nH]c2ccccc12)C(=O)N[C@@H](Cc1c[nH]c2ccccc12)C(N)=O [K9W4] (H-KKPKPKPKPWWWW-NH2)	64 to 128 µM	–	–	–
N=C(N)NCCC[C@H](NC(=O)[C@@H]1CCCN1C(=O)[C@H](CCCNC(=N)N)NC(=O)[C@@H]1CCCN1C(=O)[C@H](CCCNC(=N)N)NC(=O)[C@@H]1CCCN1C(=O)[C@H](CCCCN)NC(=O)[C@@H](N)CCCCN)C(=O)N1CCC[C@H]1C(=O)N[C@@H](Cc1c[nH]c2ccccc12)C(=O)N[C@@H](Cc1c[nH]c2ccccc12)C(=O)N[C@@H](Cc1c[nH]c2ccccc12)C(=O)N[C@@H](Cc1c[nH]c2ccccc12)C(N)=O [KR9W4] (H-KKPRPRPRPWWWW-NH2)	16 to 64 µM	8 to 16 µM	–	–
CC[C@H](C)[C@H](N)C(=O)N[C@@H](CC(C)C)C(=O)N[C@@H](CCCNC(=N)N)C(=O)N[C@@H](Cc1c[nH]c2ccccc12)C(=O)N1CCC[C@H]1C(=O)N[C@@H](Cc1c[nH]c2ccccc12)C(=O)N[C@@H](Cc1c[nH]c2ccccc12)C(=O)N1CCC[C@H]1C(=O)N[C@@H](Cc1c[nH]c2ccccc12)C(=O)N[C@@H](CCCNC(=N)N)C(=O)N[C@@H](CCCNC(=N)N)C(=O)N[C@@H](CCCCN)C(N)=O [Omiganan, reference compound] (H-ILRWPWWPWRRK-NH2)	32 µM (≈ 56.9 µg/mL)	4 to 8 µM	–	–
CC[C@H](C)[C@H](NC(=O)CNC(=O)[C@H](CCCNC(=N)N)NC(=O)[C@H](Cc1ccccc1)NC(=O)[C@@H](NC(=O)[C@H](Cc1c[nH]cn1)NC(=O)[C@H](Cc1c[nH]cn1)NC(=O)[C@H](Cc1ccccc1)NC(=O)[C@@H](N)Cc1ccccc1)[C@@H](C)CC)C(=O)N[C@H](C(=O)N[C@@H](Cc1c[nH]cn1)C(=O)N[C@H](C(=O)NCC(=O)N[C@@H](CCCCN)C(=O)N[C@H](C(=O)N[C@H](C(=O)N[C@@H](Cc1c[nH]cn1)C(=O)N[C@@H](CCCNC(=N)N)C(=O)N[C@@H](CC(C)C)C(=O)N[C@H](C(=O)N[C@H](C(=O)NCC(N)=O)[C@@H](C)O)C(C)C)[C@@H](C)CC)[C@@H](C)O)C(C)C)C(C)C [Piscidin 1, reference compound] (H-FFHHIFRGIVHVGKTIHRLVTG-NH2)	8 to 16 µM	1 to 2 µM	60–100%	–
N=C(N)NCCC[C@H](NC(=O)[C@@H](N)CCCNC(=N)N)C(=O)N1CCC[C@H]1C(=O)N[C@@H](CCCNC(=N)N)C(=O)N1CCC[C@H]1C(=O)N[C@@H](CCCNC(=N)N)C(=O)N1CCC[C@H]1C(=O)N[C@@H](CCCNC(=N)N)C(=O)N1CCC[C@H]1C(=O)N[C@@H](Cc1c[nH]c2ccccc12)C(=O)N[C@@H](Cc1c[nH]c2ccccc12)C(=O)N[C@@H](Cc1c[nH]c2ccccc12)C(=O)N[C@@H](Cc1c[nH]c2ccccc12)C(N)=O [R9W4] (H-RRPRPRPRPWWWW-NH2)	16 µM (≈ 30.9 µg/mL)	8 µM (≈ 15.5 µg/mL)	–	below 20%
N=C(N)NCCC[C@H](NC(=O)[C@@H](N)CCCNC(=N)N)C(=O)N1CCC[C@H]1C(=O)N[C@@H](CCCNC(=N)N)C(=O)N1CCC[C@H]1C(=O)N[C@@H](CCCNC(=N)N)C(=O)N1CCC[C@H]1C(=O)N[C@@H](CCCNC(=N)N)C(=O)N1CCC[C@H]1C(=O)N[C@@H](Cc1c[nH]c2ccccc12)C(=O)N[C@@H](Cc1c[nH]c2ccccc12)C(=O)N[C@@H](Cc1c[nH]c2ccccc12)C(=O)N[C@@H](Cc1c[nH]c2ccccc12)C(=O)N[C@@H](Cc1c[nH]c2ccccc12)C(N)=O [R9W5] (H-RRPRPRPRPWWWWW-NH2)	32 to 64 µM	16 µM (≈ 33.9 µg/mL)	–	–
